From US12233071B2, “Medicament for treating cough” (NIPPON CHEMIPHAR CO., LTD, priority 2018, dated 2025)
Structures can show the parent of a compound that is named as a salt. Where two headings read alike, the source gives them in different places.

What was measured:
[1] = biological target: T1, human P2X4 (Homo sapiens, UniProt Q99571); test: P2X4 receptor antagonistic action: ATP-induced intracellular calcium response (Fura-2AM) in P2X4 receptor-expressing 1321N1 cells; type: cell-based
T1 sequence (Q99571 1-388): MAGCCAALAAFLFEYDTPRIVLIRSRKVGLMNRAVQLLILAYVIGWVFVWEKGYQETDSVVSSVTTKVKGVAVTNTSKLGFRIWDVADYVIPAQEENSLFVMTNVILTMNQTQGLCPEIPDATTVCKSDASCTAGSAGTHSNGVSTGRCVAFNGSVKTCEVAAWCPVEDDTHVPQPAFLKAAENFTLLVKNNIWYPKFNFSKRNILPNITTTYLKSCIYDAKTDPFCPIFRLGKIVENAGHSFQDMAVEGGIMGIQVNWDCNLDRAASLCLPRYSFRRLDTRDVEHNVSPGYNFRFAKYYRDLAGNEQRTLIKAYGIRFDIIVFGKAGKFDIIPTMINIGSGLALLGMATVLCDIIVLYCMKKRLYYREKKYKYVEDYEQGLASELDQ
Procedure: An ATP receptor (human P2X4) was introduced in 1321N1 cells, which were then used as a system in which P2X4 receptor was expressed stably. The P2X4 receptor-expressing cells were seeded on a 96-well plate, were cultured for 24 h under conditions at 37° C. and 5% C02, and were then used for calcium measurement. Fura-2AM, which is a calcium fluorescence indicator, was dissolved in an extracellular solution for calcium imaging and applied to the seeded cells. Then, the cells were allowed to stand at room temperature for 45 min. In this way, the Fura-2AM was taken up in the cells. A micro plate reader EnVision (PerkinElmer) was used for the measurement. Light emitted from a xenon lamp was made to pass through a 340-nm or 380-nm filter, and F340 or F380, which is 510-nm fluorescence emitted when the cells were irradiated, were observed. Then, a change in the ratio value F340/F380 was an index for the intracellular calcium change. The measurement was carried out by adding ATP at the final concentration of 1 μM to each well and by recording, over time, the ATP-induced intracellular calcium response. The inhibitory activity of each test substance was measured by conducting 15-min pretreatment with each test substance before ATP application, and was calculated while compared to the case of the absence of the test substance.

[2] = test system: citric acid-induced cough; details: cited from earlier work
[3] = test system: citric acid (0.5 M)-induced cough; test: Citric acid-induced cough reflux in pretreatment guinea pigs, oral administration; type: in vivo, Hartly strain guinea pigs; details: for number of coughs, pre versus post administration: pretreatment guinea pigs
Description: Cough reflux is induced by inhalation of (in the case of mice, 0.1 M or 0.25 M and in the case of guinea pigs, 0.25 M or 0.5 M) citric acid by mice or guinea pigs under non-anesthesia conditions. The citric acid is made aerosol by using an ultrasonic nebulizer (NE-U17: OMRON Corporation), and is inhaled while the air is supplied with an artificial respirator (SN-480-7: Shinano Seisakusho). The citric acid aerosol has an average particle size of from 1 to 8 μm, and the artificial respirator is used to supply the air at a one-time ventilation volume of 6 mL, a frequency of 30 times per min, and an inhalation period of 3 min.
The respiration and the cough reflux are measured in accordance with the body-plethysmograph method. The plethysmograph used includes: a plastic-made, cylindrical cylinder part in which the trunk of each mouse or guinea pig is housed; and a cap part that covers the head portion (any plastic-made cylinder is allowed as long as each experimental animal can be put in; in the case of the mouse, for instance, the part with a diameter of 4 cm and a length of 7 cm was used). An exhaust hole is created at an upper cylinder portion so as to be able to connect, via a silicon tube, to a respiratory flow meter (TP-602T: NIHON KOHDEN CORPORATION). To tightly seal the inside of the cylinder, a rubber or celluloid collar is attached to the neck of each animal, and the cap covering the whole head is used to fix them. The head-attached cap part has an exhaust port and an inhalation port created for inhalation of a cough-inducing substance. In addition, a screw-type lid is attached to a tail portion of the cylinder so as to move in or out each experimental animal. Each mouse is put in the cylinder, allowed to play for at least 30 min, adapted to an experimental environment, and then subjected to the experiment. The respiration is recorded in a PC (IdeaPad 300: Lenovo) for measurement by measuring, as a change in volume of the cylinder, the chest movement of each experimental animal in the cylinder by using a PowerLab (ML826 PowerLab 2/26: AD Instruments) via a respiratory flow meter. When a cough is induced, the chest of the experimental animal is moved vigorously, which causes an instantaneous large volume change in the cylinder. This change is recorded using the respiratory flow meter. This frequency is recorded to measure the number of coughs. The data is analyzed by LabChart version 8 (ADInstruments). In addition, immediately before inhalation of citric acid, the respiratory frequency per 15 sec is measured.
In this way, the effects were investigated.
At that time, Hartly strain guinea pigs were used as the guinea pigs, and 0.5 M citric acid was used as the citric acid.
In this way, the effects were investigated. Here, 0.5 M citric acid was used as the pretreated citric acid.

[4] = test system: citric acid (0.25 M)-induced cough; test: Citric acid-induced cough reflux in pretreatment mice, oral administration; type: in vivo, ICR strain mice; details: oral 10 mg/kg, 0.25 M citric acid 1 h after administration
[5] = Table 131 (Example 1), human P2X4-expressing 1321N1 cells, ATP 1 μM, Fura-2AM calcium response, read-out: IC50

5-[4-[(2-(3-fluorophenyl)ethyl)-1H-imidazol-1-yl]phenyl]-1H-naphtho[1,2-b][1,4]diazepin-2,4(3H,5H)-dione hydrochloride [Compound H31]
IC50 ([1]; Table 135 (Example 14), same protocol as Example 1, read-out: Inhibitory action IC50): 51 nM

Nc1ncnc2c1ncn2[C@@H]1O[C@H](COP(=O)(O)OP(=O)(O)OP(=O)(O)O)[C@@H](O)[C@H]1O [ATP, adenosine triphosphate]
effect of ATP on citric acid-induced cough ([2]; guinea pigs, Non Patent Literature 1): elicited a concentration-dependent and significant increase

O=C1CN=C(c2cccc(-c3nnn[nH]3)c2)c2ccc3ccccc3c2N1 [Compound A21, 5-[3-(1H-tetrazol-5-yl)phenyl]-1,3-dihydro-2H-naphtho[1,2-e][1,4]diazepin-2-one sodium salt]
IC50 [1]: 910 nM

O=C1CC(=O)N(c2ccc(F)c(-c3nnn[nH]3)c2)c2ccc3ccccc3c2N1 [Compound A23, 5-[4-fluoro-3-(1H-tetrazol-5-yl)phenyl]-1H-naphtho[1,2-b][1,4]diazepin-2,4(3H,5H)-dione sodium salt]
IC50 [1, 5]: 490 nM

O=c1[nH]c2c3ccccc3ccc2n(-c2cccc(-c3nnn[nH]3)c2)c1=O [Compound C2, 4-[3-(1H-tetrazol-5-yl)phenyl]-1,4-dihydrobenzo[f]quinoxalin-2,3-dione sodium salt]
IC50 [1, 5]: 570 nM

O=c1nc(-c2cccc(-c3nnn[nH]3)c2)c2ccc3ccccc3c2[nH]1 [Compound D2, 4-[3-(1H-tetrazol-5-yl)phenyl]-1H-benzo[h]quinazolin-2-one sodium salt]
IC50 [1, 5]: 330 nM

O=C1CC(=O)N(c2ccc(-n3nnnc3Cc3ccccc3O)nc2)c2ccc3ccccc3c2N1 [Compound H11, 5-[6-[5-(2-hydroxybenzyl)-1H-tetrazol-1-yl]pyridin-3-yl]-1H-naphtho[1,2-b][1,4]diazepin-2,4(3H,5H)-dione]
IC50 ([1]; Table 134 (Example 14), same protocol as Example 1, read-out: Inhibitory action IC50): 77 nM

COc1c(F)cccc1CCc1nccn1-c1ccc(N2C(=O)CC(=O)Nc3c2ccc2ccccc32)cc1 [Compound H83, 5-[4-[(2-(3-fluoro-2-methoxyphenyl)ethyl)-1H-imidazol-1-yl]phenyl]-1H-naphtho[1,2-b][1,4]diazepin-2,4(3H,5H)-dione hydrochloride]
IC50 ([1]; read-out: Inhibitory action IC50): 87 nM

O=C1CC(=O)N(c2ccc(NC(=O)c3ccccc3C(F)(F)F)cc2)c2ccc3ccccc3c2N1 [compound C, 5-[4-[2-(trifluoromethyl)benzoyl]aminophenyl]-1H-naphtho[1,2-b][1,4]diazepin-2,4(3H,5H)-dione]
cough response increased due to airway inflammation ([3]; as stated in Example 15, oral 58.8 mg/kg): inhibited completely | number of coughs, pre versus post administration ([3]; oral 58.8 mg/kg 1 h before 0.5 M citric acid stimulation): significantly decreased

CN(C)c1ncccc1C(=O)Nc1ccc(C2=NCC(=O)Nc3c2ccc2ccccc32)cc1.Cl.Cl [compound D, 2-(dimethylamino)-N-[4-(2-oxo-2,3-dihydro-1H-naphtho[1,2-e][1,4]diazepin-5-yl)phenyl]nicotinamide dihydrochloride]
cough response increased due to airway inflammation ([3]; as stated in Example 15, oral 30 mg/kg): completely inhibit | number of coughs, pre versus post administration ([3]; oral 30 mg/kg 1 h before 0.5 M citric acid stimulation): significantly decreased

COc1ccc2c3c1O[C@H]1[C@@H](O)CC[C@H]4[C@@H](C2)N(C)CC[C@@]341 [dihydrocodeine, reference compound]
cough inhibition rate, compound A versus the same dose of dihydrocodeine [4]: comparable

TNP-ATP
number of coughs induced by citric acid and increased depending on the concentration of ATP ([2]; Non Patent Literature 2): decreased | inhibition of the ATP-elicited increase of citric acid-induced cough ([2]; guinea pigs, inhalation pretreatment / aerosol, Non Patent Literature 1): completely inhibited
